Results reported in patent US8580809B2, “Filamin A-binding anti-inflammatory analgesic” (Pain Therapeutics, Inc., priority 2009, dated 2013).

Target: T1, mu opiate receptor (MOR) (Rattus norvegicus, UniProt P33535)
T1 construct: from tissue; host or cells: rat striatal membrane preparation
Test: MOR agonist activity using [35S]GTPγS binding assay in striatal membranes
Assay type: biochemical
Conditions: 0.1 μM compound, striatal membranes
Description: To assess the mu opiate receptor (MOR) agonist activity of positive compounds from the FLNA screening, compounds were tested in a [^35S]GTPγS binding assay using striatal membranes.
Striatal tissue was homogenized in 10 volumes of ice cold 25 mM HEPES buffer, pH 7.4, which contained 1 mM EGTA, 100 mM sucrose, 50 μg/ml leupeptin, 0.04 mM PMSF, 2 μg/ml soybean trypsin inhibitor and 0.2% 2-mercaptoethanol. The homogenates were centrifuged at 800×g for 5 minutes and the supernatants were centrifuged at 49,000×g for 20 minutes.
The resultant striatal membrane preparation (200 μg) was admixed and maintained (incubated) at 30° C. for 5 minutes in reaction buffer as above that additionally contained 1 mM MgCl2 and 0.5 nM [^35S]GTPγS (0.1 μCi/assay, PerkinElmer Life and Analytical Sciences) in a total volume of 250 μl and continued for 5 minutes in the absence or presence of 0.1-10 μM of an assayed compound of interest. The reaction was terminated by dilution with 750 μl of ice-cold reaction buffer that contained 20 mM MgCl2 and 1 mM EGTA and immediate centrifugation at 16,000×g for 5 minutes.
The resulting pellet was solubilized by sonicating for 10 seconds in 0.5 ml of immunoprecipitation buffer containing 0.5% digitonin, 0.2% sodium cholate and 0.5% NP-40. Normal rabbit serum (1 μl) was added to 1 ml of lysate and incubated at 25° C. for 30 minutes. Nonspecific immune complexes were removed by incubation with 25 μl of protein A/G-conjugated agarose beads at 25° C. for 30 minutes followed by centrifugation at 5,000×g at 4° C. for 5 minutes. The supernatant was divided and separately incubated at 25° C. for 30 minutes with antibodies raised against Gαo proteins (1:1,000 dilutions).
The immunocomplexes so formed were collected by incubation at 25° C. for 30 minutes with 40 μl of agarose-conjugated protein A/G beads and centrifugation at 5,000×g at 4° C. for 5 minutes. The pellet was washed and suspended in buffer containing 50 mM Tris-HCl, pH 8.0, and 1% NP-40. The radioactivity in the suspension was determined by liquid scintillation spectrometry. […] DAMGO (H-Tyr-D-Ala-Gly-N-MePhe-Gly-OH; 1 or 10 μM) was used as a positive control.

T1 sequence (P33535 whole entry): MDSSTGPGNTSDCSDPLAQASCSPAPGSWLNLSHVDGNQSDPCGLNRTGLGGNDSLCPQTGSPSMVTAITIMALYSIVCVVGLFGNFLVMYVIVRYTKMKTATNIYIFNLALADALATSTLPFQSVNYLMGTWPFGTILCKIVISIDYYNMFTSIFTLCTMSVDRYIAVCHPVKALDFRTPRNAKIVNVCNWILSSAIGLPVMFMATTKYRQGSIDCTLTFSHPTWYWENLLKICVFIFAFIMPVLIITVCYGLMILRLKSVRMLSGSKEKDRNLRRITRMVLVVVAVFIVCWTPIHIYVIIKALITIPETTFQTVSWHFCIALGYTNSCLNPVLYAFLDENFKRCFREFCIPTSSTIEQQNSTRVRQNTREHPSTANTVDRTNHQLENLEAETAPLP

| SMILES | MOR agonist activity, [35S]GTPγS binding to Gαo, FLNA-binding compound as agonist 0.1 μM [%] |
| --- | --- |
| CS(=O)(=O)c1ccc(S(=O)(=O)N2CCC3(CC2)OCCN3S(=O)(=O)c2ccc(S(C)(=O)=O)cc2)cc1 [Compound C0009] | 146.3 |
| COc1ccc(S(=O)(=O)N2CCOC23CCN(S(=O)(=O)c2ccc(C(C)=O)cc2)CC3)cc1 [Compound C0047] | 142.2 |
| CC(=O)c1ccc(C(=O)N2CCC3(CC2)OCCN3S(=O)(=O)c2ccc(C(C)=O)cc2)cc1 [Compound C0052] | 108.4 |
| O=S(=O)(c1ccc(Br)cc1F)N1CCC2(CC1)OCCN2S(=O)(=O)c1ccc(Br)cc1F [Compound C0078] | 138.1 |
| CC(=O)c1ccc(S(=O)(=O)N2CCC3(CC2)OCC(CCCCN(C)C)N3S(=O)(=O)c2ccc(C(C)=O)cc2)cc1 (stereo not drawn) [Compound C0080M] | 187.9 |
| CC(=O)c1ccc(S(=O)(=O)N2CCC3(CC2)NC(=O)C(Cc2cnc[nH]2)N3S(=O)(=O)c2ccc(C(C)=O)cc2)cc1 (stereo not drawn) [Compound C0084M] | 163.1 |
| CC(=O)c1ccc(S(=O)(=O)N2CCC3(CC2)NC(=O)CN3Cc2ccccc2)cc1 [Compound C0085M] | 211.6 |
| O=C1CN(Cc2ccccc2)C2(CCN(S(=O)(=O)c3cc(Cl)cc(Cl)c3O)CC2)N1 [Compound C0138M] | 126.9 |
| O=C1CN(Cc2ccccc2)C2(CCN(S(=O)(=O)c3cc(Cl)c(O)c(Cl)c3)CC2)N1 [Compound C0139M] | 156.1 |
| O=S(=O)(c1ccc2ccccc2c1)N1CCC2(CC1)OCCN2S(=O)(=O)c1ccc2ccccc2c1 [Compound C0140M] | 126.1 |

Same assay, conditions: 1 μM compound + 1 μM β-funaltrexamine

| SMILES | MOR agonist activity, [35S]GTPγS binding to Gαo, 1 μM + BFNA [%] |
| --- | --- |
| CS(=O)(=O)c1ccc(S(=O)(=O)N2CCC3(CC2)OCCN3S(=O)(=O)c2ccc(S(C)(=O)=O)cc2)cc1 [Compound C0009] | 26.4 |
| COc1ccc(S(=O)(=O)N2CCOC23CCN(S(=O)(=O)c2ccc(C(C)=O)cc2)CC3)cc1 [Compound C0047] | 80.1 |
| CC(=O)c1ccc(C(=O)N2CCC3(CC2)OCCN3S(=O)(=O)c2ccc(C(C)=O)cc2)cc1 [Compound C0052] | 42.7 |
| O=S(=O)(c1ccc(Br)cc1F)N1CCC2(CC1)OCCN2S(=O)(=O)c1ccc(Br)cc1F [Compound C0078] | 170.7 |
| CC(=O)c1ccc(S(=O)(=O)N2CCC3(CC2)OCC(CCCCN(C)C)N3S(=O)(=O)c2ccc(C(C)=O)cc2)cc1 (stereo not drawn) [Compound C0080M] | 167.1 |
| CC(=O)c1ccc(S(=O)(=O)N2CCC3(CC2)NC(=O)C(Cc2cnc[nH]2)N3S(=O)(=O)c2ccc(C(C)=O)cc2)cc1 (stereo not drawn) [Compound C0084M] | 133.2 |
| CC(=O)c1ccc(S(=O)(=O)N2CCC3(CC2)NC(=O)CN3Cc2ccccc2)cc1 [Compound C0085M] | 43.7 |
| O=C1CN(Cc2ccccc2)C2(CCN(S(=O)(=O)c3cc(Cl)cc(Cl)c3O)CC2)N1 [Compound C0138M] | 51.5 |
| O=C1CN(Cc2ccccc2)C2(CCN(S(=O)(=O)c3cc(Cl)c(O)c(Cl)c3)CC2)N1 [Compound C0139M] | 51.0 |
| O=S(=O)(c1ccc2ccccc2c1)N1CCC2(CC1)OCCN2S(=O)(=O)c1ccc2ccccc2c1 [Compound C0140M] | 83.0 |

Same assay, conditions: 1 μM compound, striatal membranes

| SMILES | MOR agonist activity, [35S]GTPγS binding to Gαo, FLNA-binding compound as agonist 1 μM [%] |
| --- | --- |
| CS(=O)(=O)c1ccc(S(=O)(=O)N2CCC3(CC2)OCCN3S(=O)(=O)c2ccc(S(C)(=O)=O)cc2)cc1 [Compound C0009] | 256.2 |
| COc1ccc(S(=O)(=O)N2CCOC23CCN(S(=O)(=O)c2ccc(C(C)=O)cc2)CC3)cc1 [Compound C0047] | 206.1 |
| CC(=O)c1ccc(C(=O)N2CCC3(CC2)OCCN3S(=O)(=O)c2ccc(C(C)=O)cc2)cc1 [Compound C0052] | 162.8 |
| O=S(=O)(c1ccc(Br)cc1F)N1CCC2(CC1)OCCN2S(=O)(=O)c1ccc(Br)cc1F [Compound C0078] | 236.6 |
| CC(=O)c1ccc(S(=O)(=O)N2CCC3(CC2)OCC(CCCCN(C)C)N3S(=O)(=O)c2ccc(C(C)=O)cc2)cc1 (stereo not drawn) [Compound C0080M] | 205.4 |
| CC(=O)c1ccc(S(=O)(=O)N2CCC3(CC2)NC(=O)C(Cc2cnc[nH]2)N3S(=O)(=O)c2ccc(C(C)=O)cc2)cc1 (stereo not drawn) [Compound C0084M] | 255.5 |
| CC(=O)c1ccc(S(=O)(=O)N2CCC3(CC2)NC(=O)CN3Cc2ccccc2)cc1 [Compound C0085M] | 246.2 |
| O=C1CN(Cc2ccccc2)C2(CCN(S(=O)(=O)c3cc(Cl)cc(Cl)c3O)CC2)N1 [Compound C0138M] | 183.9 |
| O=C1CN(Cc2ccccc2)C2(CCN(S(=O)(=O)c3cc(Cl)c(O)c(Cl)c3)CC2)N1 [Compound C0139M] | 206.6 |
| O=S(=O)(c1ccc2ccccc2c1)N1CCC2(CC1)OCCN2S(=O)(=O)c1ccc2ccccc2c1 [Compound C0140M] | 215.4 |

System: not listed separately
Test: Mouse hot-water tail-flick test
Assay type: in vivo
Conditions: 56 mg/kg, at about 20-30 minutes
Description: The mouse “tail flick” test was used to assay the relative antinociceptive activity of compositions containing a compound to be assayed. This assay was substantially that disclosed by Xie et al., 2005 J. Neurosci 25:409-416.
The mouse hot-water tail-flick test was performed by placing the distal third of the tail in a water bath maintained at 52° C. The latency until tail withdrawal from the bath was determined and compared among the treatments. A 10 second cutoff was used to avoid tissue damage. Data are converted to percentage of antinociception by the following formula: (response latency−baseline latency)/(cutoff−baseline latency)×100 to generate dose-response curves. […] Relative potency was determined as a ratio of the A50 values.
To assess tolerance to the antinociceptive effect, the compound was administered twice daily for 7 days at an A90 dose (dose that results in a 90% antinociceptive effect in the 52° C. warm-water tail-flick test), and the tail-flick test was performed daily after the a.m. dose.

| SMILES | mean maximum antinociception amount |
| --- | --- |
| COc1ccc(S(=O)(=O)N2CCOC23CCN(S(=O)(=O)c2ccc(C(C)=O)cc2)CC3)cc1 [Compound C0047] | about 35% |

Same assay, conditions: oral, 56 mg/kg, at about 10 minutes

| SMILES | mean maximum antinociception amount |
| --- | --- |
| CS(=O)(=O)c1ccc(S(=O)(=O)N2CCC3(CC2)OCCN3S(=O)(=O)c2ccc(S(C)(=O)=O)cc2)cc1 [Compound C0009] | about 50% |

Same assay, conditions: oral, 56 mg/kg, at about 20 minutes

| SMILES | mean maximum antinociception amount |
| --- | --- |
| CC(=O)c1ccc(C(=O)N2CCC3(CC2)OCCN3S(=O)(=O)c2ccc(C(C)=O)cc2)cc1 [Compound C0052] | about 30% |

System: primary human astrocytes
Test: LPS-induced cytokine release from primary human astrocytes
Assay type: cell-based
Conditions: 10 pM, 2 hours prior to LPS and 24 hours

| SMILES | IL-1β Average % (±SEM) | IL-6 Average % (±SEM) | TNF-α Average % (±SEM) |
| --- | --- | --- | --- |
| O=C1CN(Cc2ccccc2)C2(CCN(S(=O)(=O)c3cc(Cl)c(O)c(Cl)c3)CC2)N1 [Compound C0139M] | 83.4 (3.0) % | 76.6 (3.1) % | 77.0 (3.2) % |

Same assay, conditions: 1 nM, 2 hours prior to LPS and 24 hours

| SMILES | IL-1β Average % (±SEM) | IL-6 Average % (±SEM) | TNF-α Average % (±SEM) |
| --- | --- | --- | --- |
| O=C1CN(Cc2ccccc2)C2(CCN(S(=O)(=O)c3cc(Cl)c(O)c(Cl)c3)CC2)N1 [Compound C0139M] | 78.2 (0.7) % | 80.1 (7.0) % | 77.5 (1.8) % |

Same assay, conditions: 100 nM, 2 hours prior to LPS and 24 hours

| SMILES | IL-1β Average % (±SEM) | IL-6 Average % (±SEM) | TNF-α Average % (±SEM) |
| --- | --- | --- | --- |
| O=C1CN(Cc2ccccc2)C2(CCN(S(=O)(=O)c3cc(Cl)c(O)c(Cl)c3)CC2)N1 [Compound C0139M] | 70.5 (1.6) % | 80.2 (6.3) % | 72.7 (2.5) % |

Same assay, conditions: 100 fM, 2 hours prior to LPS and 24 hours

| SMILES | IL-1β Average % (±SEM) | IL-6 Average % (±SEM) | TNF-α Average % (±SEM) |
| --- | --- | --- | --- |
| O=C1CN(Cc2ccccc2)C2(CCN(S(=O)(=O)c3cc(Cl)c(O)c(Cl)c3)CC2)N1 [Compound C0139M] | 84.5 (2.6) % | 82.6 (1.6) % | 74.8 (4.3) % |
